Experimental data published in PMC6345825, “Crystal structure of the plant symporter STP10 illuminates sugar uptake mechanism in monosaccharide transporter superfamily” (Nature Communications, 2019).

How the values were obtained:
STP10 [1] = molecular target: T1, STP10 (Arabidopsis thaliana, UniProt Q9LT15); assay: [3H]-2-deoxy-D-glucose uptake in yeast EBY-WV4000; type: cell-based; settings: pH 5.0; 30 °C; labelled compound
T1 construct: full length 514 residues; S. cerevisiae expression, C-terminal thrombin site and His10 tag, tag cut with thrombin for structure (model residues 21-507, monomer); STP10 gene subcloned for Xenopus oocyte and yeast EBY-WV4000 uptake
T1 sequence (Q9LT15 1-514): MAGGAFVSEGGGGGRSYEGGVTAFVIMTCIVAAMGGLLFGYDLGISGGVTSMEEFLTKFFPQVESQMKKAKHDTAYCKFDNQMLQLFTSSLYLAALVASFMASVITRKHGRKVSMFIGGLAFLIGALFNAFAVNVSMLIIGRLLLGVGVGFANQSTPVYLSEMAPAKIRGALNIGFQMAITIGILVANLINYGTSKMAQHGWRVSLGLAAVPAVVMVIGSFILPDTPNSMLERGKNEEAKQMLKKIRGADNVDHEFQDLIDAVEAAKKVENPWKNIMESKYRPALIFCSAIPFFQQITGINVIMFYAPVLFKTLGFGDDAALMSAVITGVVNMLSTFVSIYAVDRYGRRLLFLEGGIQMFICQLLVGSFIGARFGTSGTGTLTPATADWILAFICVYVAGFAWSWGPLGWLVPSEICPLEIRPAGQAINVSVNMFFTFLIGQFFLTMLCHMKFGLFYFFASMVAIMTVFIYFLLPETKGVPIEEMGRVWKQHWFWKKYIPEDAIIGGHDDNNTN

STP10 [2] = molecular target: T1, STP10; assay: competition with [3H]-D-glucose uptake in yeast EBY-WV4000; type: cell-based; settings: pH 5.0; 30 °C; 250 µM competitor against 10 µM D-glucose
STP10 [3] = molecular target: T1, STP10; assay: X-ray crystal structure, […] Å; settings: central binding site; outward occluded state; lipidic cubic phase, pH 4.5
STP10 [4] = molecular target: T1, STP10; assay: isothermal titration calorimetry, purified protein, one-site model; settings: pH 5.5; 20 °C; 0.03% DDM; read-out: apparent Kd

In the case of `OC[C@H]1OC(O)C[C@@H](O)[C@@H]1O` (some centres unmarked) [2-deoxyglucose], the “[3H]-2-deoxy-D-glucose uptake in yeast EBY-WV4000” value (STP10 [1]) is reported as “The protein can transport the non-metabolized glucose analog 2-deoxyglucose”.

In the case of `OC[C@H]1OC(O)[C@H](O)[C@@H](O)[C@H]1O` (some centres unmarked) [galactose], the competition (STP10 [2]) is reported as “Competition assays using radioactively labeled glucose confirm galactose and mannose as potential substrates”.

For `OC[C@H]1OC(O)[C@H](O)[C@@H](O)[C@@H]1O` (some centres unmarked) [glucose], the “X-ray crystal structure, 2.4 Å” value (STP10 [3]) was “contains unambiguous density for glucose” and the Kd (STP10 [4]) was 3.2 µM.

`OC[C@H]1OC(O)[C@@H](O)[C@@H](O)[C@@H]1O` (some centres unmarked) [mannose] was tested, and the competition (STP10 [2]) was “Competition assays using radioactively labeled glucose confirm galactose and mannose as potential substrates”.
